{"source": "paper PMC5947527", "about": "(Chemical Science, 2015)", "key": {"[1]": {"system": "P. aeruginosa", "assay": "Live confocal imaging of bacteria, signal to noise of FAM vs NBD label", "format": "cell-based", "conditions": "confocal microscopy, 10 μM", "source_text": "UBI29–41 was firstly conjugated to carboxyfluorescein (UBI-1) and used to image bacteria with analysis via confocal microscopy. This yielded insufficient signal to noise to distinguish bacteria from background fluorescence (Fig. 1). We therefore took advantage of the environmental reporting properties of the fluorophore 7-nitrobenz-2-oxa-1,3-diazole (NBD)[12] and hypothesized there would be fluorescence amplification of NBD in the apolar hydrophobic bacterial membrane.\nFig. 1 NBD–UBI enables live confocal imaging of bacteria. […]\n(§1) Confocal Analysis and Fluorescence Quantification: 8-Well Lab-Tek II Confocal Chambers (VWR, PA, USA) were coated in fibronectin (for neutrophil experiments) or poly-d-lysine (for bacteria) at 37 °C for 20 minutes, then washed in PBS prior to bacterial innoculation. […] Exposure to 488 nm light was limited to 5% of the maximum laser power in order to minimize toxicity. ‘Green’ fluorescence (for FAM and NBD) was excited with a dedicated 488 nm line and emitted light detected with meta detector (500-530 nM).\n(§2) Syto nuclear and dyes were excited with a dedicated 543 nm line, and emitted light detected with meta detector (570-610 nM). Fields of view were chosen based on the counterstain and at least three fields of view were recorded for each condition. […]\nmean fluorescence intensity on the probe channel within this ROI was quantified. […]"}, "[2]": {"assay": "Chemical stability on storage in phosphate buffered saline at 37 °C (HPLC)", "format": "physicochemical", "conditions": "1 mg mL–1 in PBS, day 0 vs day 3, HPLC, detection at 380 nm", "experimental": "This modification is particularly of relevance due to the expected in vivo inflammatory oxidative environment within an infected pneumonic lung due to infiltrating host inflammatory cells such as neutrophils,[13] and therefore all subsequent modifications incorporated Nle in place of Met.\nHPLC chromatograms (gradient acetonitrile + 0.1% formic acid/water + 0.1% formic acid from 5/95 to 95/5 over 10 min, then isocratic for 4 min; detection at 380 nm). UBI-2 (1 mg mL^–1 in PBS, upper panels) and UBI-3 (1 mg mL^–1 in PBS, lower panels) at (A) day 0 and (B) day 3 after incubation at 37 °C."}, "[3]": {"system": "methicillin-sensitive Staphylococcus aureus (MSSA), Pseudomonas aeruginosa and Klebsiella pneumoniae", "assay": "Confocal bacterial labelling, UBI-2 vs UBI-3 on a panel of bacteria", "format": "cell-based", "conditions": "fluorescence normalised to UBI-2, mean ± SEM, n ≥ 3", "experimental": "Fig. 3 UBI-3 retains specificity and sensitivity for bacterial labelling. […] Panels show bacteria labelled with either UBI-2 or UBI-3 with quantification of fluorescence (values normalised to UBI-2) (Bars represent mean, error bars represent standard error of mean, n ≥ 3, ns = not significant, scale bar = 10 μm). (B) Quantification from confocal images of UBI-3 (10 μM) imaging a panel of bacteria (statistical analyses shown compared to unlabelled bacteria, n ≥ 3 for each bacteria, *** = p < 0.001). […] [MRSA: methicillin-resistant Staphylococcus aureus, MSSA: methicillin-sensitive Staphylococcus aureus]. […]\nas §1, §2"}, "[4]": {"system": "methicillin-sensitive Staphylococcus aureus", "assay": "Confocal labelling of MSSA with quantified fluorescence", "format": "cell-based", "conditions": "for concentration dependence of bacterial labelling: 0.5 μM to 50 μM, methicillin sensitive S. aureus; for bacterial labelling (fluorescence compared with UBI-3): MSSA, 10 μM, fluorescence normalized to UBI-3, mean ± SEM, n ≥ 3", "experimental": "Fig. 6 Confocal Images of compounds UBI-3 to 9 with quantified fluorescence. Panels show methicillin-sensitive Staphylococcus aureus incubated with UBI-3 to 9 (all 10 μM) with quantification of bacterial fluorescence normalized to UBI-3 (bars represent mean (±SEM), n ≥ 3, ns = not significant, *** = p < 0.001, * = p < 0.05, scale bar = 10 μm).\nFig. 8 Confocal images and quantification of cyclic variants when compared to UBI-3. Panels show methicillin-sensitive Staphylococcus aureus incubated with cyclic UBI compounds (all 10 μM) with quantification of bacterial fluorescence normalized to UBI-3 (bars represent mean (±SEM), n ≥ 3, ns = not significant, ** = p < 0.01, scale bar = 10 μm).\nBacterial Culture and Labelling: Bacteria used were K. pneumoniae (ATCC BAA1706) ATCC, E. coli (ATCC 25922) ATCC, A. baumannii (J3433) Clinical Isolate, P. aeruginosa (J3284) Clinical Isolate, Methicillin Resistant S. aureus (MRSA) (ATCC25923) ATCC and Methicillin Sensitive S. aureus (MSSA) (ATCC 252) ATCC. All bacteria were grown on Lysogeny broth (LB) agar and from a single bacterial colony placed into 10ml of LB and incubated at 37°C for 16 hours in an orbital shaker.\nCultures were centrifuged at 4000rpm for 5 minutes and the pellet resuspended in 1ml phosphate buffered saline (PBS, Life Technologies). Following three further washes in PBS the cultures were reconstituted to 1 OD595 nm. Bacteria were counterstained with 5µM Syto 82 orange fluorescent nucleic acid stain (Invitrogen, CA, USA) in a shaking heat block at 37 °C for 20 minutes. For FCFM bacteria were stained with 1µM Calcein AM (Sigma, MO, USA) for 30 minutes at 37 °C. Counterstained bacteria were washed in PBS to remove excess dye. […]\n(§3) Confocal Analysis and Fluorescence Quantification: 8-Well Lab-Tek II Confocal Chambers (VWR, PA, USA) were coated in fibronectin (for neutrophil experiments) or poly-d-lysine (for bacteria) at 37 °C for 20 minutes, then washed in PBS prior to bacterial innoculation. For co-culture assays, neutrophils were seeded on fibronectin coated wells at 1 x 10^5 neutrophils per well for 20 minutes and non-adherent neutrophils aspirated. Bacteria were added to each chamber to a final concentration of 0.5 OD595 nm with the desired final concentration of Smartprobe. A laser-scanning confocal imaging system (LSM510; Carl Zeiss, Jena, Germany), incorporating an upright Axioskop FS2 microscope (63× objective) was used for image acquisition and processing. Exposure to 488 nm light was limited to 5% of the maximum laser power in order to minimize toxicity. ‘Green’ fluorescence (for FAM and NBD) was excited with a dedicated 488 nm line and emitted light detected with meta detector (500-530 nM).\n(§4) Syto nuclear and dyes were excited with a dedicated 543 nm line, and emitted light detected with meta detector (570-610 nM). Fields of view were chosen based on the counterstain and at least three fields of view were recorded for each condition. For affinity assays, following initial imaging, the fluid was aspirated and two gentle washes with PBS were performed. The chamber was re-imaged on confocal.\n(§5) Analysis was with ImageJ (version 1.46r, National Institutes of Health, USA); the Syto channel was automatically thresholded (MaxEntropy, with a set threshold 0-47) and an ROI generated from this. The […]\n(§6) mean fluorescence intensity on the probe channel within this ROI was quantified. Data presented represents the mean of three experiments, from each of which three separate fields of view were assessed. All experiments were performed at least three times unless otherwise stated and results expressed as mean ± SEM. Data was analysed by unpaired t-test and significance was determined as p<0.05 (GraphPad Prism version 5.01 for Windows, GraphPad Software, San Diego California USA).\nEx vivo Human Lung and FCFM Procedure: Human lung samples were obtained from patients undergoing surgical resection for lung carcinoma. All images were obtained on sections of normal lung […]"}, "[5]": {"system": "Methicillin sensitive S. aureus, K. pneumoniae and P. aeruginosa", "assay": "Bacterial affinity: fluorescence retention following a PBS wash (confocal)", "format": "cell-based", "conditions": "for bacterial affinity (Table 1, effect on efficacy): Table 1 summary", "experimental": "Three compounds (UBI-3, UBI-5 and UBI-10) were assessed for further evaluation. […] In vitro affinity of bacterial binding was assessed by incorporating a wash step in the live confocal imaging protocol with a panel of bacteria with the ‘wash-off’ representing a surrogate indicator of Smartprobe-bacterial labelling affinity. […] UBI-10, therefore, was assessed further in a clinically relevant biological system.\nFigure S4. Quantified fluorescence of confocal microscopy images of the compounds UBI-3, UBI-5 and UBI-10 on three bacteria and fluorescence retention following a PBS wash. Quantification of fluorescence intensity of (A) Methicillin sensitive S. aureus, (B) K. pneumoniae and (C) and P. […]\nintensity following a PBS wash. […]\nas §3, §4, §5, §6\nEx vivo Human Lung and FCFM Procedure: Human lung samples were obtained from patients undergoing surgical resection for lung carcinoma. All images were obtained on sections of normal lung away from the cancerous growth. Informed consent was obtained and the study was approved by the Regional Ethics Committee. Samples were taken fresh from the operating theatre, dissected into 4mm sections and placed in wells of 96 well plate. Bacteria were pre-labelled with Smartprobe or Calcein AM and co-cultured in the well with a maximum volume of 100µl. […]"}}, "note": "Entries after “also recorded” stand apart in the source; their conditions may differ. Residues, ends and D or L forms follow the SMILES beside them. *: point of attachment. NBD = O=[N+]([O-])c1ccc(*)c2nonc12; Ahx = NCCCCCC(=O)O", "data": [{"compound": "CSCC[C@H](NC(=O)[C@H](CCCNC(=N)N)NC(=O)[C@H](CCCNC(=N)N)NC(=O)[C@H](CCCCN)NC(=O)[C@H](C)NC(=O)[C@H](CCCNC(=N)N)NC(=O)CNC(=O)[C@@H](NC(=O)CCCCCNc1ccc([N+](=O)[O-])c2nonc12)[C@@H](C)O)C(=O)N[C@@H](CCC(N)=O)C(=O)N[C@@H](Cc1ccc(O)cc1)C(=O)N[C@@H](CC(N)=O)C(=O)N[C@@H](CCCNC(=N)N)C(=O)N[C@@H](CCCNC(=N)N)C(N)=O", "note": "[UBI-2] ({NBD-Ahx}-TGRAKRRMQYNRR-NH2)", "values": [{"measurement": "signal to noise for bacterial labelling", "setting": "[1]", "value": "good signal to noise; also recorded: higher signal to noise for bacterial labelling over UBI-1"}, {"measurement": "chemical stability in PBS at 37 °C", "setting": "[2]", "value": "underwent chemical degradation; also recorded: Unstable at 37 °C in PBS"}, {"measurement": "bacterial labelling, Met vs Nle variant", "setting": "[3]", "value": "same fluorescence intensity"}]}, {"compound": "NBD-Ahx-Thr-Gly-Arg-Ala-Lys-Arg-MeArg-Nle-Gln-Tyr-Asn-Arg-Arg-D-Phe-D-Val-NH2 [UBI-5, NBD-UBI with D-amino acids (D-Val and D-Phe) incorporated at the C-terminus]", "values": [{"measurement": "concentration dependence of bacterial labelling", "setting": "[4]", "value": "concentration dependent manner"}, {"measurement": "bacterial labelling (fluorescence compared with UBI-3)", "setting": "[4]", "value": "same intensity as UBI-3"}, {"measurement": "fluorescence following labelling and a PBS wash", "setting": "[5]; 10 µM, two gentle PBS washes, three bacterial species, n=3", "value": "significantly lower fluorescence"}, {"measurement": "bacterial affinity (Table 1, effect on efficacy)", "setting": "[5]", "value": "poor bacterial affinity"}]}, {"compound": "NBD-Ahx-Thr-Gly-Arg-Ala-Lys-MeArg-MeArg-Nle-Gln-Tyr-Asn-MeArg-MeArg-NH2 [UBI-4, NBD-UBI with N-Methylarginine (MeArg) insertion based on MALDI-TOF analysis of cleavage peptides]", "values": [{"measurement": "concentration dependence of bacterial labelling", "setting": "[4]", "value": "concentration dependent increase in bacterial fluorescence"}, {"measurement": "bacterial labelling (fluorescence compared with UBI-3)", "setting": "[4]", "value": "same intensity as UBI-3"}, {"measurement": "bacterial affinity (Table 1, effect on efficacy)", "setting": "[5]", "value": "poor bacterial affinity"}]}]}
